Assay results: US10308620B2, “Muscarinic M1 receptor positive allosteric modulators” (SUVEN LIFE SCIENCES LIMITED, priority 2015, dated 2019)
Counter-ions that a name gives are not always drawn.

Molecular target: recombinant human Muscarinic M1 receptor (Homo sapiens (Human), UniProt P11229)
Test: Allosteric potency EC50, CHO cells with pCRE-Luc reporter, in presence of EC20 of acetylcholine
Type: cell-based
Settings: 4 hours
Protocol: Determination of Allosteric Potency EC50 Values for Muscarinic M1 Receptor:
A stable CHO cell line expressing recombinant human Muscarinic M1 receptor and pCRE-Luc reporter system was used for cell-based assay. The assay offers a non-radioactive based approach to determine binding of a compound to GPCRs. In this specific assay, the level of intracellular cyclic AMP which is modulated by activation or inhibition of the receptor is measured. The recombinant cells harbor luciferase reporter gene under the control of cAMP response element.
The above cells were grown in 96 well clear bottom white plates in Hams F12 medium containing 10% fetal bovine serum (FBS). Prior to the addition of compounds or standard agonist, cells were serum starved overnight. Increasing concentrations of test compounds were added along with EC20 of acetylcholine in OptiMEM medium to the cells. The incubation was continued at 37° C. in CO2 incubator for 4 hours. Medium was removed and cells were washed with phosphate buffered saline. The cells were lysed and luciferase activity was measured in a Luminometer. Luminescence units were plotted against the compound concentrations using Graphpad software. EC50 values of the compounds were defined as the concentration required in stimulating the luciferase activity by 50% in presence of EC20 of acetylcholine.

recombinant human Muscarinic M1 receptor, sequence (P11229 whole entry): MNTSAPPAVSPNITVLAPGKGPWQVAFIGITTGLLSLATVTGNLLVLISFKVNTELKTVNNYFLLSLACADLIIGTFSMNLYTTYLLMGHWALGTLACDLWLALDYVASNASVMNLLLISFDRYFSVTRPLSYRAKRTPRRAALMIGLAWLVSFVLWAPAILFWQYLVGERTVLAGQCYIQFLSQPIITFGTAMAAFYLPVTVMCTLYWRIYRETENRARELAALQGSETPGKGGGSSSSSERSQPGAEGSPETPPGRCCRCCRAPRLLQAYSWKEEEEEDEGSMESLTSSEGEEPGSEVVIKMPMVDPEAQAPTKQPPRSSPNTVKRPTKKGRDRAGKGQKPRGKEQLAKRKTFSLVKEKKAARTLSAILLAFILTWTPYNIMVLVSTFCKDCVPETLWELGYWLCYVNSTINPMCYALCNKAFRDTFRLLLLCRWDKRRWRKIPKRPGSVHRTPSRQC

Row | EC50 [nM] | SMILES
1 | 955 | O=C(N[C@H]1CCCC[C@@H]1O)C1=CN(Cc2ccccc2)c2ncccc2O1 [Example 30, N-(cis-1S, 2S-2-Hydroxycyclohexyl)-4-benzyl-4H-pyrido[3,2-b][1,4]oxazine-2-carboxamide]
2 | 131 | O=C(N[C@H]1CCCC[C@@H]1O)C1=CN(Cc2ccccc2)c2ccccc2S1 [Example 87, N-(cis-1S,2S-2-Hydroxycyclohexyl)-4-benzyl-4H-benzo[1,4]thiazine-2-carboxamide]
3 | 1060 | O=C(N[C@H]1CCCC[C@@H]1O)C1=CN(Cc2ccc(Cl)nc2)c2ccccc2[S+]1[O-] (stereo partly drawn) [Example 97, N-(cis-1S, 2S-2-Hydroxycyclohexyl)-4-{2-chloropyridin-5-ylmethyl}-1-oxo-4H-benzo[1,4]thiazine-2-carboxamide]
4 | 2370 | O=C(NC1CCNCC1F)C1=CN(Cc2ccccc2F)c2cccc(F)c2O1 (centres unmarked) [Example 73, N-(3-Fluoropiperidin-4-yl)-4-(2-fluorobenzyl)-8-fluoro-4H-benzo[1,4]oxazine-2-carboxamide hydrochloride]
5 | 1480 | O=C(N[C@H]1CCCC[C@@H]1O)C1=CN(Cc2ccccn2)c2c(F)cccc2O1 [Example 56, N-(cis-1S,2S-2-Hydroxycyclohexyl)-4-(pyridin-2-ylmethyl)-5-fluoro-4H-benzo[1,4]oxazine-2-carboxamide]
6 | 143 | O=C(N[C@H]1CCCC[C@@H]1O)C1=CN(Cc2ccccc2)c2cccc(F)c2O1 [Example 48, N-(cis-1S,2S-2-Hydroxycyclohexyl)-4-benzyl-8-fluoro-4H-benzo[1,4]oxazine-2-carboxamide]
7 | 1550 | O=C(N[C@@H]1CCC[C@H]1O)C1=CN(Cc2cccc(F)c2F)c2ccccc2O1 [Example 39, N-(trans-1R,2R-2-Hydroxycyclopentyl)-4-(2,3-difluorobenzyl)-4H-benzo[1,4]oxazine-2-carboxamide]
8 | 1010 | Cn1ccc(-c2cc(CN3C=C(C(=O)N[C@H]4CCCC[C@@H]4O)Oc4ccccc43)ccn2)n1 [Example 59, N-(cis-1S,2S-2-Hydroxycyclohexyl)-4-[12-(1-methyl-1H-pyrazol-3-yl)-pyridin-4-ylmethyl]-4H-benzo[1,4]oxazine-2-carboxamide]
9 | 1580 | O=C(N[C@H]1CCCC[C@@H]1O)C1=CN(Cc2ccc(F)cc2)c2ncccc2O1 [Example 35, N-(cis-1S,2S-2-Hydroxycyclohexyl)-4-(4-fluorobenzyl)-4H-pyrido[3,2-b][1,4]oxazine-2-carboxamide]
10 | 906 | O=C(N[C@H]1CCCC[C@@H]1O)C1=CN(Cc2cccc(F)c2F)c2ccccc2[S+]1[O-] (stereo partly drawn) [Example 93, N-(cis-1S,2S-2-Hydroxycyclohexyl)-4-(2,3-difluorobenzyl)-1-oxo-4H-benzo[1,4]thiazine-2-carboxamide]
11 | 1400 | O=C(N[C@H]1CCCC[C@@H]1O)C1=CN(Cc2ccccc2)c2ccccc2[S+]1[O-] (stereo partly drawn) [Example 94, N-(cis-1S,2S-2-Hydroxycyclohexyl)-4-benzyl-1-oxo-4H-benzo[1,4]thiazine-2-carboxamide]
12 | 1540 | O=C(N[C@H]1CCCC[C@@H]1O)C1=CN(Cc2cccc(F)c2)c2cccnc2O1 [Example 36, N-(cis-1S,2S-2-Hydroxycyclohexyl)-1-(3-fluorobenzyl)-1H-pyrido[2,3-b][1,4]oxazine-3-carboxamide]
13 | 145 | COc1ccc(CN2C=C(C(=O)N[C@H]3CCCC[C@@H]3O)Sc3ccccc32)cc1 [Example 88, N-(cis-1S,2S-2-Hydroxycyclohexyl)-4-{4-methoxybenzyl}-4H-benzo[1,4]thiazine-2-carboxamide]
14 | 460 | O=C(N[C@H]1CCCC[C@@H]1O)C1=CN(Cc2ccc(F)cc2)c2ccccc2S1 [Example 89, N-(cis-1S,2S-2-Hydroxycyclohexyl)-4-{4-fluorobenzyl}-4H-benzo[1,4]thiazine-2-carboxamide]
15 | 1080 | O=C(Nc1ccccc1CO)C1=CN(Cc2ccccc2F)c2cccc(F)c2O1 [Example 46, N-(2-Hydroxymethylphenyl)-4-(2-fluorobenzyl)-8-fluoro-4H-benzo[1,4]oxazine-2-carboxamide]
16 | 141 | O=C(N[C@H]1CCCC[C@@H]1O)C1=CN(Cc2ccc(Cl)nc2)c2ccccc2S1 [Example 91, N-(cis-1S,2S-2-Hydroxycyclohexyl)-4-{2-chloropyridin-5-ylmethyl}-4H-benzo[1,4]thiazine-2-carboxamide]
17 | 1620 | O=C(Nc1ccccc1CO)C1=CN(Cc2ccccc2F)c2ccccc2O1 [Example 43, N-(2-Hydroxymethylphenyl)-4-(2-fluorobenzyl)-4H-benzo[1,4]oxazine-2-carboxamide]
18 | 262 | O=C(N[C@H]1CCCC[C@@H]1O)C1=CN(Cc2ccccc2Cl)c2cccc(F)c2O1 [Example 38, N-(cis-1S, 2S-2-Hydroxycyclohexyl)-4-(2-chlorobenzyl)-8-fluoro-4H-benzo[1,4]oxazine-2-carboxamide]
19 | 599 | O=C(N[C@H]1CCCC[C@@H]1O)C1=CN(Cc2ccncc2)c2ccccc2S1 [Example 90, N-(cis-1S,2S-2-Hydroxycyclohexyl)-4-{pyridin-4-ylmethyl}-4H-benzo[1,4]thiazine-2-carboxamide]

Second part, the compound before the results:

Row | SMILES | EC50 [nM]
20 | COc1ccc(CN2C=C(C(=O)NCC(C)(C)O)Oc3ccccc32)cc1 [Example 6, N-(2-Hydroxy-2-methylpropyl)-4-(4-methoxybenzyl)-4H-benzo[1,4]oxazine-2-carboxamide] | 1510
21 | O=C(N[C@H]1CCCC[C@@H]1O)C1=CN(Cc2ccc(Cl)cc2Cl)c2ccccc2O1 [Example 28, N-(cis-1S, 2S-2-Hydroxycyclohexyl)-4-(2,4-dichlorobenzyl)-4H-benzo[1,4]oxazine-2-carboxamide] | 250
22 | O=C(N[C@H]1CCCC[C@@H]1O)C1=CN(Cc2ccccc2Cl)c2ccccc2O1 [Example 41, N-(cis-1S, 2S-2-Hydroxycyclohexyl)-4-(2-chlorobenzyl)-4H-benzo[1,4]oxazine-2-carboxamide] | 168
23 | O=C(N[C@H]1CCCC[C@@H]1O)C1=CN(Cc2ccccc2F)c2ncccc2O1 [Example 3, N-(cis-1S,2S-2-Hydroxycyclohexyl)-4-{2-fluorobenzyl}-4H-pyrido[3,2-b][1,4]oxazine-2-carboxamide] | 1150
24 | O=C(N[C@H]1CCCC[C@@H]1O)C1=CN(Cc2cccnc2)c2ccccc2O1 [Example 22, N-(cis-1S,2S-2-Hydroxycyclohexyl)-4-(pyridin-3-ylmethyl)-4H-benzo[1,4]oxazine-2-carboxamide] | 353
25 | COc1ccc(CN2C=C(C(=O)N[C@H]3CCCC[C@@H]3O)Oc3ccccc32)cn1 [Example 15, N-(cis-1S,2S-2-Hydroxycyclohexyl)-4-(2-methoxypyridin-5-ylmethyl)-4H-benzo[1,4]oxazine-2-carboxamide] | 591
26 | Cc1ncccc1CN1C=C(C(=O)N[C@H]2CCCC[C@@H]2O)Oc2ccccc21 [Example 27, N-(cis-1S,2S-2-Hydroxycyclohexyl)-4-(2-methylpyridin-3-ylmethyl)-4H-benzo[1,4]oxazine-2-carboxamide] | 1370
27 | CC(C)(O)CNC(=O)C1=CN(Cc2cccc(F)c2)c2ccccc2O1 [Example 8, N-(2-Hydroxy-2-methylpropyl)-4-(3-fluorobenzyl)-4H-benzo[1,4]oxazine-2-carboxamide] | 2890
28 | O=C(N[C@H]1CCCC[C@@H]1O)C1=CN(Cc2ccnc(Cl)c2)c2ccccc2O1 [Example 24, N-(cis-1S,2S-2-Hydroxycyclohexyl)-4-(2-chloropyridin-4-ylmethyl)-4H-benzo[1,4]oxazine-2-carboxamide] | 514
29 | COc1ccc(CN2C=C(C(=O)NCC(C)(C)O)Oc3ccccc32)cn1 [Example 16, N-(2-Hydroxy-2-methylpropyl)-4-(2-methoxypyridin-5-ylmethyl)-4H-benzo[1,4]oxazine-2-carboxamide] | 1350
30 | O=C(Nc1ccccc1CO)C1=CN(Cc2cccc(F)c2F)c2cccc(F)c2O1 [Example 44, N-(2-Hydroxymethylphenyl)-4-(2,3-difluorobenzyl)-8-fluoro-4H-benzo[1,4]oxazine-2-carboxamide] | 1280
31 | O=C(N[C@H]1CCCC[C@@H]1O)C1=CN(Cc2ccc(F)cc2)c2ccccc2O1 [Example 13, N-(cis-1S,2S-2-Hydroxycyclohexyl)-4-(4-fluorobenzyl)-4H-benzo[1,4]oxazine-2-carboxamide] | 907
32 | O=C(N[C@H]1CCCC[C@@H]1O)C1=CN(Cc2ccccc2C(F)(F)F)c2ccccc2O1 [Example 37, N-(cis-1S, 2S-2-Hydroxycyclohexyl)-4-(2-trifluoromethylbenzyl)-4H-benzo[1,4]oxazine-2-carboxamide] | 534
33 | O=C(N[C@H]1CCCC[C@@H]1O)C1=CN(Cc2ccccc2F)c2cccc(F)c2O1 [Example 2, N-(cis-1S,2S-2-Hydroxycyclohexyl)-4-(2-fluorobenzyl)-8-fluoro-4H-benzo[1,4]oxazine-2-carboxamide] | 134
34 | COc1cccc(CN2C=C(C(=O)NCC(C)(C)O)Oc3ccccc32)c1 [Example 10, N-(2-Hydroxy-2-methylpropyl)-4-(3-methoxybenzyl)-4H-benzo[1,4]oxazine-2-carboxamide] | 1550
35 | O=C(N[C@H]1CCCC[C@@H]1O)C1=CN(Cc2ccc(Cl)c(Cl)c2)c2ccccc2O1 [Example 26, N-(cis-1S, 2S-2-Hydroxycyclohexyl)-4-(3,4-dichlorobenzyl)-4H-benzo[1,4]oxazine-2-carboxamide] | 159
